Where a name gives a salt, the structure may show the parent alone.
Assays:
[1] = test system: reverse passive Arthus reaction (RPA) in rats; assay: Reverse passive Arthus reaction (RPA) in rats; assay type: in vivo, Charles Foster rats of both sexes; conditions: Rattus norvegicus, po, 4 h, one hour before RPA, edema vs untreated control
Protocol: Charles Foster rats of both sexes, weighing 150-180 g, were sorted into groups of six animals each. 24 hours before the initiation of the RPA, the rats were shaved from the mid-dorsal region and fasted overnight. The test compounds were administered orally one hour before inducing the Arthus reaction. The RPA reaction was induced by intradermal injection of 0.1 ml of appropriately diluted rabbit anti-BSA serum. Immediately after the intradermal exposure, each rat received 0.5 ml of 0.4% bovine serum albumin intraveneously. Four hours after the intradermal challenge, each group of animals was killed by cervical dislocation. The full thickness of the skin was removed from the back of each animal, and a 12 mm diameter disk was punched out with a metal punch from the site of the antiserum injection. The wet weight of each skin site was determined as soon as possible. The edema caused by the RPA was measured as the difference (expressed in mg) between the wet weight of the site injected with antibody and that injected with normal rabbit serum. The results are expressed as the percentage inhibition or potentiation of the edema by the compound as compared with the edema induced in the untreated control animals.

[2] = test system: carrageenin-induced paw edema in rats; assay: Systemic anti-inflammatory action on carrageenin-induced paw edema in rats; assay type: in vivo, male Charles Foster rats; conditions: Rattus norvegicus, po; decrease in paw volume, 3 and 6 hours after carrageenin; from dose/response curve; read-out: ED50
Protocol: Male Charles Foster rats (120-150 g) were fasted for 18 hours, with water ad libitum. The test compound dissolved in distilled water was administered orally. The control group received distilled water. 0/05 ml of 0.5% carrageenin suspension was injected subcutaneously into the plantar region of the left hind paw. Using a Maclab differential volume meter, the paw volume was determined before the carrageenin injection and 3 and 6 hours after the injection. The percentage decrease in paw volume was calculated by the following equation: [formula] The ED50 value was calculated from the dose/response curve. Six animals were used for each group. The results with representative compounds according to the invention and their salts are listed in Table 4, the substituents relating to the following formula Ia: [drawing 11]

**Q.** What does the source list for CN1CC[C@H](c2c(O)cc(O)c3c(=O)cc(-c4ccccc4Cl)oc23)[C@H](O)C1 (single isomer, unassigned) [(-) 2-Chlorophenyl H CH3 HCl.1,5 H2 O, cis-(-)-2-(2-chlorophenyl)-5,7-dihydroxy-8-[4'-(3'-hydroxy-1'-methyl)-piperidinyl]-4H-1-benzopyran-4-one]?
**A.** inhibition in vivo at 1.25 mg/kg ([1]; dose 1.25 mg/kg p.o.): 34%; inhibition in vivo at 2.5 mg/kg ([1]; dose 2.5 mg/kg p.o.): 48.8%; inhibition in vivo at 5 mg/kg ([1]; dose 5.0 mg/kg p.o.): 70%; inhibition in vivo at 10 mg/kg ([1]; dose 10.0 mg/kg p.o.): 98.8%; ED50 [2]: 2.4 mg/kg
